Test results taken from article PMC12844124, “Synthesis and Study of Substituted Chalcones Combined with Fluoroazobenzenes—New Photoswitches for Application in Biological Systems” (Molecules, 2026).

Assays:
[1] = Changes over time of Z to E transition by 19F NMR; format: physicochemical; conditions: light 505 nm, 100 mM in DMSO
From the text: We can observe that for electromagnetic radiation in the range of wavelengths 390 nm to 610 nm, transitions from E to Z of about 0–76% are obtained. The best results for all compounds are in visible wavelengths 505 nm or 525 nm (30.59–75.44%). From analyzing Figure 2 we can draw the following conclusions: all synthesized compounds undergo switching under visible light (this is important because UV radiation can damage the DNA of cells, inhibiting replication and, as a result, preventing cell division). For the 2,6-difluoro substituents (17i), (17j), (17k), and (17l) with values of 74.84%, 73.2%, 74.39%, and 75.44%, respectively, the largest share of the Z configuration is at (525 nm) and, for the rest of (17a), (17b), (17c), (17e), (17f), and (17g), it is in range of 30.57–47.13% at 505 nm. […] Multiple cycles of photoreversible switching under alternating green and blue light irradiation, with no significant photobleaching or degradation, confirmed the repeatable and robust photochromic conversion of the synthesized azobenzenes (Figure 2b). Then we measured changes over time (transitions from Z to E, upon irradiation with 505 nm for (17a–17c) and (17e–17g), and 525 nm for (17i–17l) compounds (Figure 3, and see Section S4.3 in Supplementary Materials).

[2] = UV–VIS spectra of E/Z isomers in DMSO; format: physicochemical; conditions: for Δ λmax n→π*: between E and Z isomers
Description: For this purpose, the UV–VIS spectra were measured for all synthesized hybrids (17a–17l) at concentrations from 20 to 500 µM in dimethyl sulfoxide (DMSO) in light at λ 505 nm and for (17a–17c), (17e–17g), and (17i–17l) at λ 525 nm, respectively, as detailed in Table 1 (see Section S4.4 in Supplementary Materials).

[3] = test system: PC-3 cells; assay: Cell cycle analysis by flow cytometry, PC-3; format: cell-based, human; conditions: 24 h
Description: The BJ or PC-3 cells were treated as described previously, with the exception that 0.15 × 10^6 cells per well were seeded in 6-well plates. After 24 h of treatment, cells were harvested by trypsinization (Biowest, Nuaillé, France, L0931), washed twice, resuspended in PBS, and added to cold 70% ethanol for overnight fixation at −20 °C. Subsequently, cells were centrifuged and resuspended in PBS containing 5 µg/mL of propidium iodide in PBS (Sigma-Aldrich, St. Louis, MO, USA, 4170), 0.1% Triton X-100, and 10 µg/mL of DNAse-free RNAse (A&A Biotechnology, Gdansk, Poland, 1006-10) in the dark for 4 h at 37 °C. FACS analysis was performed using a FACSCanto II flow cytometer and FACSDiva, version 9.0 software (BD Biosciences, San Jose, CA, USA). Flow rate was set to about 1000 events/cells per second. Signals from at least 10,000 events per sample were captured. The percentages of PC-3 cells in cell cycle phases (G0/G1, S, and G2/M) were determined using ModFit LT 4.1.7 (Verity Software House, Topsham, ME, USA).

[4] = test system: PC-3 cells; assay: MTS cell proliferation assay, PC-3; format: cell-based, human
Description: Human BJ fibroblasts (American Type Cell Culture Collection, Manassas, VA, USA, CRL-2522) and human prostate cancer cell line PC-3 (American Type Cell Culture Collection, Manassas, VA, USA, CRL-1435), derived from bone metastases, were routinely grown in […]) Medium (ThermoFisher, Waltham, MA, USA, 21127-022) and supplemented with heat-inactivated 10% Fetal Bovine Serum (Biowest, France, […]) and 1% antibiotic solution (Biowest, Nuaillé, France, L0022), in a humidified 5% CO2 atmosphere at 37 °C. Cells were used between 3 and 20 passages. The 96-well plates were prepared by seeding 5 × 10^3 or 2.5 × 10^3 cells per well, for 24 and 48 h treatments, respectively, with at least five technical and two biological repeats. […] The cells were treated with either the Z conformer of 17j, with continuous illumination with 525 nm light, or the E conformer. The Z conformer was prepared by illuminating its DMSO solution with 525 nm light overnight. The cell proliferation was analyzed with CellTiter Aqueous One Solution Cell Proliferation MTS (3-(4,5-dimethylthiazol-2-yl)-5-(3-carboxymethoxyphenyl)-2-(4-sulfophenyl)-2H-tetrazolium) Assay (Promega, Madison, WI, USA, G5430) after 24 or 48 h of treatment. The absorbance was measured at 490 and 670 nm with FLUOStar Omega plate reader (BMG LABTECH GmbH, Ortenberg, Germany). The statistical analysis was performed within R 4.5.1 project. […] The log-logistic four parametric model (4PL), with the lower limit boundary set to 0 and group fitting, was used, as available in the drc package, to fit cell proliferation data. […] The assessment metrics for model goodness of fit were performed with functions available in the drc package and with custom ones. When appropriate, the delta method was applied to obtain error of central tendency. To assess the goodness of fit for each of the biological replicates, deviance R^2 (DR^2) was calculated and assessed. […] The DR^2 was calculated according to the following Equation: 1 - (Dres/Dnull), where Dres-residual deviance and Dnull-null deviance (deviance of the model with mean as a predicted value). The null hypothesis was assessed with the two-way ANOVA with Tukey's post hoc test for multiple comparisons or with the two-way t-test when only two groups were compared. The differences in the cell cycle percentages were assessed with the two-way ANOVA with Tukey's post hoc test.

Row | SMILES | Z isomer, changes over time ([1]; 0 h) | Z isomer, changes over time ([1]; 1 h) | Z isomer, changes over time ([1]; 2 h) | Z isomer, changes over time ([1]; 3 h) | Z isomer, changes over time ([1]; 4 h) | Z isomer, changes over time ([1]; 5 h) | Z isomer, changes over time ([1]; 6 h) | Z isomer, changes over time ([1]; 7 h) | Z isomer, changes over time ([1]; 8 h) | Δ (Z to E change 0 h to 8 h) [1] | εmax (n→π*) ([2]; E isomer) | λmax n→π* (E) ([2]; E isomer) | εmax (n→π*) ([2]; Z isomer) | λmax n→π* (Z) ([2]; Z isomer) | Δ λmax n→π* [2] | percentage of cells in the G2/M phase ([3]; 20 nM) | percentage of cells in the G2/M phase ([3]; 60 nM) | normalized asymptote ([4]; 24 h treatment) | normalized asymptote ([4]; 48 h treatment)
1 | COc1ccc(/C=C/C(=O)c2cccc(/N=N/c3ccc(F)cc3)c2)cc1OC [Compound 17a] | 32.44% | 31.33% | 30.37% | 29.4% | 28.74% | 27.66% | 26.82% | 26.38% | 26.02% | 6.42% |  |  |  |  |  |  |  |  | 
2 | COc1cc(/C=C/C(=O)c2cccc(/N=N/c3ccc(F)cc3)c2)cc(OC)c1 [Compound 17b] | 32.38% | 32.21% | 30.2% | 29.69% | 28.37% | 26.74% | 25.21% | 24.74% | 24.03% | 8.35% | 688 dm^3·mol^−1·cm^−1 | 442.1 nm | 898 dm^3·mol^−1·cm^−1 | 434.0 nm | 8.1 nm |  |  |  | 
3 | COc1cc(/C=C/C(=O)c2cccc(/N=N/c3ccc(F)cc3)c2)cc(OC)c1OC [Compound 17c] | 30.59% | 30.16% | 28.28% | 27.14% | 25.95% | 25.61% | 25.18% | 24.05% | 23.17% | 7.42% |  |  |  |  |  |  |  |  | 
4 | COc1ccc(/C=C/C(=O)c2cccc(/N=N/c3ccc(F)cc3F)c2)cc1OC [Compound 17e] | 46.84% | 45.35% | 45.18% | 44.16% | 43.55% | 43.39% | 43.01% | 42.31% | 42.17% | 4.67% |  |  |  |  |  |  |  |  | 
5 | COc1cc(/C=C/C(=O)c2cccc(/N=N/c3ccc(F)cc3F)c2)cc(OC)c1 [Compound 17f] | 47.13% | 46.61% | 45.77% | 44.72% | 44.28% | 43.95% | 43.3% | 42.6% | 41.87% | 5.26% | 872 dm^3·mol^−1·cm^−1 | 441.9 nm | 1150 dm^3·mol^−1·cm^−1 | 427.9 nm | 14.0 nm |  |  |  | 
6 | COc1cc(/C=C/C(=O)c2cccc(/N=N/c3ccc(F)cc3F)c2)cc(OC)c1OC [Compound 17g] | 44.82% | 43.69% | 42.89% | 42.36% | 41.25% | 40.61% | 40.5% | 39.88% | 38.78% | 6.04% |  |  |  |  |  |  |  |  | 
7 | COc1cc2c(c(OC)c1OC)-c1ccc(OC)c(=O)cc1[C@@H](NC(C)=O)CC2 [colchicine, reference compound] |  |  |  |  |  |  |  |  |  |  |  |  |  |  |  | 15.7% | 54.2% | 63.8 ± 6.2% | 51.3 ± 5.7%
